Consider 4 compounds from PubChem BioAssay AID1259407 (Chemical Carcinogenesis Research Information System (CCRIS), 2018).

In the data set the test system is CCRIS mutagenicity, Ames/micronucleus/aberration tests. Description: CCRIS mutagenicity studies.
Setting [1] is: Test System: AMES SALMONELLA TYPHIMURIUM, Strain/Indicator: TA98, Metabolic Activation: NONE, Method: STANDARD PLATE.
Setting [2] is: Test System: AMES SALMONELLA TYPHIMURIUM, Strain/Indicator: TA100, Metabolic Activation: NONE, Method: STANDARD PLATE.

Structures are written as SMILES. Calls of active or inactive are those of the source. The rule behind the calls is not given here.

With `c1ccc2c(c1)cc1c3c2ccc2cccc(c23)C2NC12` (stereo unspecified), the mutagenic call runs as follows: under setting [1], “active; positive”; (Test System: AMES SALMONELLA TYPHIMURIUM, Strain/Indicator: TA100, Metabolic Activation: MICROSOMAL EPOXIDE HYDROLASE, Method: PREINCUBATION) “active; positive”; (Test System: AMES SALMONELLA TYPHIMURIUM, Strain/Indicator: TA100, Metabolic Activation: NONE, Method: PREINCUBATION) “active; positive”; under setting [2], “active; positive”; (Test System: CHINESE HAMSTER V-79, Strain/Indicator: V-79/6-THIOGUANINE, Metabolic Activation: NONE, Method: REPLATING) “active; positive”; (Test System: CHINESE HAMSTER V-79, Strain/Indicator: V-79/6-THIOGUANINE, Metabolic Activation: NONE, Method: STANDARD PLATE) “active; positive”. Under “Test System: E. COLI, Strain/Indicator: WP2UVRA, Metabolic Activation: NONE, Method: STANDARD PLATE”, the mutagenic call is “active; positive”.

Take `ClCc1cc2cccc3ccc4c5ccccc5cc1c4c32`: the mutagenic call was “active; positive” under setting [1] and “active; positive” under setting [2].

As to `Nc1nc(-c2cccnc2)cs1`, the mutagenic call (Test System: AMES SALMONELLA TYPHIMURIUM, Strain/Indicator: TA1538, Metabolic Activation: RAT, LIVER, S-9, AROCLOR 1254, Method: STANDARD PLATE) was “inactive; negative”.

As to `O=C(O)C1CCCCC1`, the mutagenic call (Test System: UDS RAT GASTRIC MUCOSAL CELLS, Strain/Indicator: THY INCORP, Metabolic Activation: NONE, Method: LIQUID SCINTILLATION COUNTING) was “inactive; negative”.
